Common to all, as to format: functional
In test [1] the test system is Staphylococcus aureus. Kind of test: Antibacterial activity against Staphylococcus aureus ATCC 33592 assessed as reduction in microbial growth.
For a further test, the system named is Bacillus subtilis. Kind of test: Antibacterial activity against Bacillus subtilis ATCC 6633 assessed as reduction in microbial growth.
In test [2] the test system is Staphylococcus aureus. Kind of test: Antibacterial activity against Staphylococcus aureus ATCC 25923 assessed as reduction in microbial growth.
The next test has as its system Streptococcus suis. The test can be described thus: Antibacterial activity against Streptococcus suis SC19 assessed as reduction in bacterial growth by CLSI protocol based MHB micro-silution method.
The subject of test [3] is Staphylococcus aureus. Kind of test: Antibacterial activity against Staphylococcus aureus ATCC 25923 assessed as reduction in bacterial growth by CLSI protocol based MHB micro-silution method.
Test [4] concerns Escherichia coli. Kind of test: Antibacterial activity against […] Escherichia coli ATCC 25922 assessed as reduction in bacterial growth measured for 12 hrs by CLSI protocol based broth microdilution method. For orientation: Broth dilution looks for growth in wells or tubes with falling amounts of substance.
Test [5] relates to Staphylococcus aureus. Kind of test: Antibacterial activity against methicillin-resistant Staphylococcus aureus ATCC 43300 assessed as reduction in bacterial growth measured for 12 hrs by CLSI protocol based broth microdilution method.
In another test the test system is Micrococcus luteus. Kind of test: Antibacterial activity against Micrococcus luteus ML01 assessed as reduction in bacterial growth incubated for 24 to 48 hrs by serial dilution method. Particulars: time 24-48 hrs.
The test system of test [6] is Staphylococcus aureus. Kind of test: Antibacterial activity against methicillin-Staphylococcus aureus ATCC 29213 assessed as reduction in bacterial growth by broth micro-dilution method.
The test system of another test is Enterococcus faecalis. The test can be described thus: Antibacterial activity against Enterococcus faecalis ATCC 29212 assessed as reduction in microbial growth by CLSI protocol based Mueller-Hinton broth micro-dilution method.
Test [7] deals with Staphylococcus aureus. Kind of test: Antimicrobial activity against Staphylococcus aureus ATCC 25913 assessed as reduction in bacterial growth by CLSI protocol based Mueller-Hinton broth micro-dilution method.
The test system of the next test is Bacillus cereus. The test can be described thus: Antibacterial activity against Bacillus cereus ATCC 11778 assessed as reduction in bacterial growth.
Test [8] concerns Staphylococcus aureus. Kind of test: Antibacterial activity against Staphylococcus aureus assessed as reduction in microbial growth incubated for 24 hrs by CLSI protocol based analysis.
For test [9], the system named is Escherichia coli. Kind of test: Antibacterial activity against Escherichia coli ATCC 25922 assessed as reduction in microbial growth incubated for 24 hrs by CLSI protocol based analysis.

We go through 16 compounds from ChEMBL document CHEMBL6182843, “Actinomycetes: Treasure trove for discovering novel antibiotic candidates” (2025).

SMILES strings stand for the structures. Values after ≈ are worked out from the molar mass of the structure shown. A value given as a limit tells only on which side of the number the result lay.

On to `CC[C@H](C)[C@@H]1NC(=O)[C@@H](Cc2c[nH]c3cc(Br)ccc23)NC(=O)[C@@H](Cc2c[nH]c3ccccc23)NC(=O)[C@@H](CO)NC(=O)[C@@H](CCC(=O)O)NC(=O)[C@@H](C(C)C)NC1=O`, for which the MIC (usually the least concentration at which growth counts as inhibited) with Staphylococcus aureus [1] came out at 6.3 µg/mL; in the test on Bacillus subtilis it was 1.6 µg/mL; with Staphylococcus aureus [2] it was 6.3 µg/mL.

`CCC[C@@H](O)Cc1cc(O)cc2c1C(=O)c1c(O)ccc(O)c1C2=O`: the MIC in the test with Streptococcus suis and in the test on Staphylococcus aureus [3] was 1.56 µg/mL (≈ 4.56 µM) throughout. With `CC(=O)NCCc1c(CC2c3ccccc3[C@]3(O)CCN(C(C)=O)[C@@]23O)[nH]c2ccccc12` (stereo partly specified), the minimum inhibitory concentration (MIC) with Escherichia coli [4] came to 13 µg/mL (≈ 29 µM); with Staphylococcus aureus [5], 25 µg/mL (≈ 55.9 µM). As to `CC(=O)NCCc1c(CN2c3ccccc3[C@@]3(O)CCN(C(C)=O)[C@]23O)[nH]c2ccccc12`, the minimal inhibitory concentration (MIC) in the test with Escherichia coli [4] was 25 µg/mL (≈ 55.7 µM); in the test with Staphylococcus aureus [5], 7 µg/mL (≈ 15.6 µM).

In the case of `O=C1NC(=O)C(c2c[nH]c3cc(Cl)c(Cl)cc23)=C1c1c[nH]c2ccc(Cl)cc12`, the MIC came to 0.5 µg/mL (≈ 1.16 µM) in the test on Micrococcus luteus and 1 µg/mL (≈ 2.32 µM) in the test with Staphylococcus aureus [6]. For `C[C@@H](O)[C@@H]1CC[C@H](c2ccc(O)c3c2C(=O)[C@@]24O[C@@]2([C@@H](C)O[C@@H]2CC(=O)O[C@@H]24)[C@H]3O)N1C`, the MIC with Enterococcus faecalis is 40 µg/mL; in the test on Staphylococcus aureus [7] it was 40 µg/mL (≈ 89.8 µM). Take `CC[C@H](C)[C@@H]1NC(=O)[C@@H](Cc2c[nH]c3cc(Br)ccc23)NC(=O)[C@@H](Cc2c[nH]c3ccc(Br)cc23)NC(=O)[C@@H](CO)NC(=O)[C@@H](CCC(=O)O)NC(=O)[C@@H](C(C)C)NC1=O`: the MIC with Staphylococcus aureus [1] was above 100 µg/mL; in the test on Bacillus subtilis, 1.6 µg/mL; in the test with Staphylococcus aureus [2], 25 µg/mL.

For the compound `COC(=O)c1[nH]c(C(=O)O)c(-c2c[nH]c3c(Cl)cccc23)c1-c1c[nH]c2c(Cl)cccc12`, the figures for the MIC in the test with Micrococcus luteus and in the test with Staphylococcus aureus [6] were 16 µg/mL (≈ 34.2 µM) and 3 µg/mL (≈ 6.41 µM), respectively.

As for `C[C@@H]1C[C@@]2(C)O[C@]1(O)[C@@H]1C(=O)O[C@@]34C[C@@H](C)[C@@]5(C)O[C@@]13C(=C[C@@H]4C5O)C2=O` (stereo partly specified), in the test on Bacillus cereus, the MIC was found to be 50 µg/mL (≈ 133 µM).

On to `CC[C@H](C)C[C@@]1(O)C(=O)C[C@H](O)[C@](C)(O)/C=C(\C)[C@@H](O)/C(C)=C/C(C)=C/C[C@@H](CO[C@@H]2O[C@H](CO)[C@@H](O)[C@H](O)[C@H]2O)OC(=O)C[C@@H](O)CNC1=O`, for which the values for the MIC in the test on Staphylococcus aureus [8] and with Escherichia coli [9] were 21 µg/mL and 27.9 µg/mL, respectively.

With `CC[C@H](C)[C@@H]1NC(=O)[C@@H](Cc2c[nH]c3cc(Cl)ccc23)NC(=O)[C@@H](Cc2c[nH]c3ccc(Cl)cc23)NC(=O)[C@@H](CO)NC(=O)[C@@H](CCC(=O)O)NC(=O)[C@@H](C(C)C)NC1=O`, the values for the minimum inhibitory concentration (MIC) with Staphylococcus aureus [1], with Bacillus subtilis and in the test with Staphylococcus aureus [2] were 1.6 µg/mL, 1.6 µg/mL and 3.1 µg/mL, respectively. As for `CC(=O)[C@@H](C)N(CCc1c[nH]c2ccccc12)C(C)=O`, the MIC with Escherichia coli [4] came out at 7 µg/mL (≈ 25.7 µM).

As for `CC1C[C@@](C)(C(=O)[C@]23C=C[C@@]45C[C@H](C)[C@@](C)(O[C@]42CC(=O)O5)[C@H]3O)OC1=O` (stereo partly specified), the MIC in the test with Bacillus cereus came to 25 µg/mL (≈ 66.4 µM). Consider `CC[C@H](C)C[C@]1(O)C(=O)NC[C@H](O)CC(=O)O[C@H](CO[C@@H]2O[C@H](CO)[C@@H](O)[C@H](O)[C@H]2O)CC/C=C(\C)[C@H]2C(C)=C[C@@]3(C)O[C@H]4C[C@]1(O)O[C@@]4(C)[C@@H]23`, for which the figures for the MIC in the test on Staphylococcus aureus [8] and in the test on Escherichia coli [9] were 11.6 µg/mL and 15.7 µg/mL, respectively.

`CC(=O)OC1[C@H]2C=C3C(=O)[C@@]4(C)C[C@@H](C)[C@](O)(O4)[C@@H]4C(=O)O[C@]25C[C@@H](C)[C@@]1(C)O[C@@]345` (stereo partly specified): the MIC in the test with Bacillus cereus was above 50 µg/mL. In the case of `C[C@@H](O)[C@@H]1CC[C@H](c2ccc(O)c3c2C(=O)[C@]24O[C@]2([C@@H](C)O[C@@H]2CC(=O)O[C@@H]24)[C@H]3O)N1C`, the figures for the minimum inhibitory concentration (MIC) with Enterococcus faecalis and in the test with Staphylococcus aureus [7] were 40 µg/mL and 40 µg/mL (≈ 89.8 µM), respectively.
